Experimental data from US10858360B2, “Tricyclic gyrase inhibitors” (priority 2011, dated 2020).
In brackets after ≈: the same amount, converted by molar mass.

How the values were obtained:
Format in all cases: cell-based
S. aureus ATCC 13709 = test: MIC, S. aureus ATCC 13709 (Alamar Blue broth microdilution); details: for MIC: Staphylococcus aureus
S. pneumoniae ATCC 51916 = test: MIC, S. pneumoniae ATCC 51916; details: for MIC: Streptococcus pneumoniae, ATCC51916, Spn = S. pneumoniae
E. coli ATCC 25922 = test: MIC, E. coli ATCC 25922; details: for MIC: Escherichia coli
P. aeruginosa ATCC 15692 = test: MIC, P. aeruginosa ATCC 15692; details: for MIC: Pseudomonas aeruginosa, ATCC15692, Pa = P. aeruginosa
A. baumannii ATCC 19606 = test: MIC, A. baumannii ATCC 19606; details: strain not given; for MIC: Acinetobacter baumannii, ATCC19606, Ab = A. baumannii
[1] = test system: K. pneumoniae ATCC 700603; test: MIC, K. pneumoniae ATCC 700603; details: for MIC: Klebsiella pneumoniae, ATCC700603, read-out: MIC Kpn; for MIC Kpn: Kpn = K. pneumoniae
Y. pestis CO92 pgm- = test: microbe, parasite or virus in culture; details: Yp = Y. pestis
[2] = test system: B. thailandensis ATCC E264; test: microbe, parasite or virus in culture
[3] = test system: F. tularensis holarctica LVS; test: microbe, parasite or virus in culture; details: Ft = F. tularensis; strain not given
[4] = ATCC13709, S. aureus, Alamar Blue read after overnight incubation at 35° C.
[5] = ATCC25922, E. coli, Alamar Blue read after overnight incubation at 35° C.
[6] = ATCC25922, Ec = E. coli, strain not given
[7] = S. aureus, Alamar Blue read after overnight incubation at 35° C.
[8] = E. coli, Alamar Blue read after overnight incubation at 35° C.

Row | Structure (SMILES) | MIC (S. aureus ATCC 13709; [4]) | MIC (S. aureus ATCC 13709; ATCC13709, Sa = S. aureus) | MIC (S. pneumoniae ATCC 51916) | MIC (E. coli ATCC 25922; [5]) | MIC (E. coli ATCC 25922; [6]) | MIC (P. aeruginosa ATCC 15692) | MIC (A. baumannii ATCC 19606) | MIC [1] | other results
1 | CNc1cc(F)cc2c1[nH]c1nc(Oc3cnc(C)nc3)nc(N3CC4NCCC4(C)C3)c12 (stereo not drawn) [4.157] | ≤ 0.5 mg/L | ≤ 0.5 mg/L | ≤ 0.5 mg/L | ≤ 0.5 mg/L | ≤ 0.5 mg/L | 8 mg/L (≈ 17.8 µM) | ≤ 0.5 mg/L | 4 mg/L (≈ 8.92 µM) | 
2 | CNc1cc(F)cc2c1[nH]c1nc(Oc3ccc(C#N)nc3)nc(N3C[C@H]4C[C@@H]3C[C@H]4N)c12 [4.434] | ≤ 0.5 mg/L | ≤ 0.5 mg/L | ≤ 0.5 mg/L | ≤ 0.5 mg/L | ≤ 0.5 mg/L | 1 mg/L (≈ 2.25 µM) | ≤ 0.5 mg/L | 1 mg/L (≈ 2.25 µM) | 
3 | CNc1cc(F)cc2c1[nH]c1nc(Oc3cnc(C)nc3)nc(N3C[C@@H]4[C@H](N)C[C@]4(C)C3)c12 [4.151] | ≤ 0.5 mg/L | ≤ 0.5 mg/L | ≤ 0.5 mg/L | ≤ 0.5 mg/L | ≤ 0.5 mg/L | 1 mg/L (≈ 2.23 µM) | ≤ 0.5 mg/L | 1 mg/L (≈ 2.23 µM) | 
4 | CNc1cc(F)cc2c1[nH]c1nc(Oc3cnc(C)nc3)nc(N3CC4CCCNC4C3)c12 (stereo not drawn) [4.079] |  |  |  |  |  |  |  |  | MIC Sa (S. aureus ATCC 13709; [7]): ≤0.5 mg/L; MIC Sa (S. aureus ATCC 13709; Sa = S. aureus): ≤0.5 mg/L; MIC Spn (S. pneumoniae ATCC 51916): ≤0.5 mg/L; MIC Ec (E. coli ATCC 25922; [8]): ≤0.5 mg/L; MIC Ec (E. coli ATCC 25922; Ec = E. coli, strain not given): ≤0.5 mg/L; MIC Pa (P. aeruginosa ATCC 15692): 4 mg/L (≈ 8.92 µM); MIC Ab (A. baumannii ATCC 19606): ≤0.5 mg/L; MIC Kpn [1]: 8 mg/L (≈ 17.8 µM); MIC Yp (Y. pestis CO92 pgm-): ≤0.5 mg/L; MIC Bt [2]: 1 mg/L (≈ 2.23 µM); MIC Ft [3]: 4 mg/L (≈ 8.92 µM)
5 | CNc1cc(F)cc2c1[nH]c1nc(Oc3cnc(C(C)O)nc3)nc(N3CC4(CC[C@H]4N)C3)c12 (stereo partly drawn) [4.410] | ≤ 0.5 mg/L | ≤ 0.5 mg/L | ≤ 0.5 mg/L | ≤ 0.5 mg/L | ≤ 0.5 mg/L | 1 mg/L (≈ 2.15 µM) | 2 mg/L (≈ 4.31 µM) | 2 mg/L (≈ 4.31 µM) | 
6 | CNc1cc(F)c(C)c2c1[nH]c1nc(Oc3cnc(C)nc3)nc(N3C[C@H](N)C4(CC4)C3)c12 [6.29] | ≤ 0.5 mg/L | ≤ 0.5 mg/L | ≤ 0.5 mg/L | ≤ 0.5 mg/L | ≤ 0.5 mg/L | 2 mg/L (≈ 4.46 µM) | ≤ 0.5 mg/L | 2 mg/L (≈ 4.46 µM) | 
7 | CNc1cc(F)cc2c1[nH]c1nc(Oc3cnc(C)nc3)nc(N3CC4C(N)C4C3)c12 (stereo not drawn) [4.073] |  |  |  |  |  |  |  |  | MIC Sa (S. aureus ATCC 13709; [7]): ≤0.5 mg/L; MIC Sa (S. aureus ATCC 13709; Sa = S. aureus): ≤0.5 mg/L; MIC Spn (S. pneumoniae ATCC 51916): ≤0.5 mg/L; MIC Ec (E. coli ATCC 25922; [8]): ≤0.5 mg/L; MIC Ec (E. coli ATCC 25922; Ec = E. coli, strain not given): ≤0.5 mg/L; MIC Pa (P. aeruginosa ATCC 15692): 4 mg/L (≈ 9.51 µM); MIC Ab (A. baumannii ATCC 19606): ≤0.5 mg/L; MIC Kpn [1]: 2 mg/L (≈ 4.76 µM); MIC Yp (Y. pestis CO92 pgm-): ≤0.5 mg/L; MIC Bt [2]: ≤0.5 mg/L; MIC Ft [3]: 1 mg/L (≈ 2.38 µM)
8 | CNc1cc(F)cc2c1[nH]c1nc(Oc3cnc(C)nc3)nc(N3CC4(CCC4N)C3)c12 (stereo not drawn) [4.105] |  |  |  |  |  |  |  |  | MIC Sa (S. aureus ATCC 13709; Sa = S. aureus): ≤0.5 mg/L; MIC Spn (S. pneumoniae ATCC 51916): ≤0.5 mg/L; MIC Ec (E. coli ATCC 25922; Ec = E. coli, strain not given): ≤0.5 mg/L; MIC Pa (P. aeruginosa ATCC 15692): 1 mg/L (≈ 2.3 µM); MIC Ab (A. baumannii ATCC 19606): ≤0.5 mg/L; MIC Kpn [1]: 2 mg/L (≈ 4.6 µM); MIC Yp (Y. pestis CO92 pgm-): ≤0.5 mg/L; MIC Bt [2]: ≤0.5 mg/L; MIC Ft [3]: 1 mg/L (≈ 2.3 µM)
9 | CNc1cc(F)cc2c1[nH]c1nc(Oc3cnc(C(C)O)nc3)nc(N3CC4C[C@@H](N)C4C3)c12 (stereo partly drawn) [4.409] | ≤ 0.5 mg/L | ≤ 0.5 mg/L | ≤ 0.5 mg/L | ≤ 0.5 mg/L | ≤ 0.5 mg/L | 1 mg/L (≈ 2.15 µM) | 1 mg/L (≈ 2.15 µM) | 4 mg/L (≈ 8.61 µM) | 
10 | CNc1cc(F)c(C)c2c1[nH]c1nc(Oc3cnc(C)nc3)nc(N3CC4C[C@@H]3C[C@H]4N)c12 [6.28] | ≤ 0.5 mg/L | ≤ 0.5 mg/L | ≤ 0.5 mg/L | ≤ 0.5 mg/L | ≤ 0.5 mg/L | 1 mg/L (≈ 2.23 µM) | ≤ 0.5 mg/L | 2 mg/L (≈ 4.46 µM) | 
11 | CNc1cc(F)c(F)c2c1[nH]c1nc(Oc3cnc(C)nc3)nc(N3CC4(CCC4N)C3)c12 (stereo not drawn) [5.01] |  |  |  |  |  |  |  |  | MIC Sa (S. aureus ATCC 13709; Sa = S. aureus): ≤0.5 mg/L; MIC Spn (S. pneumoniae ATCC 51916): ≤0.5 mg/L; MIC Ec (E. coli ATCC 25922; Ec = E. coli, strain not given): ≤0.5 mg/L; MIC Pa (P. aeruginosa ATCC 15692): ≤0.5 mg/L; MIC Ab (A. baumannii ATCC 19606): ≤0.5 mg/L; MIC Kpn [1]: 1 mg/L (≈ 2.21 µM)
12 | CNc1cc(F)c(F)c2c1[nH]c1nc(Oc3cnc(N)nc3)nc(N3CC(N)C4(CC4)C3)c12 (stereo not drawn) [5.11] |  |  |  |  |  |  |  |  | MIC Sa (S. aureus ATCC 13709; [7]): ≤0.5 mg/L; MIC Sa (S. aureus ATCC 13709; Sa = S. aureus): ≤0.5 mg/L; MIC Spn (S. pneumoniae ATCC 51916): ≤0.5 mg/L; MIC Ec (E. coli ATCC 25922; [8]): ≤0.5 mg/L; MIC Ec (E. coli ATCC 25922; Ec = E. coli, strain not given): ≤0.5 mg/L; MIC Pa (P. aeruginosa ATCC 15692): 4 mg/L (≈ 8.82 µM); MIC Ab (A. baumannii ATCC 19606): 2 mg/L (≈ 4.41 µM); MIC Kpn [1]: 4 mg/L (≈ 8.82 µM)
13 | CNc1cc(F)cc2c1[nH]c1nc(Oc3cnc(N4CCCC4=O)nc3)nc(N3C[C@H](N)C4(CC4)C3)c12 [4.346] | ≤ 0.5 mg/L |  |  | 4 mg/L (≈ 7.94 µM) |  |  |  |  | 
14 | CNc1cccc2c1[nH]c1nc(Sc3cncc(S(N)(=O)=O)c3)nc(N3CC4C(N)C4C3)c12 (stereo not drawn) [1.41] | 4 mg/L (≈ 8.29 µM) |  |  | 8 mg/L (≈ 16.6 µM) |  |  |  |  | 
15 | CNc1cc(F)cc2c1[nH]c1nc(Oc3cncnc3)nc(N3C4CCC3C(N)C4)c12 (stereo not drawn) [4.019] | 2 mg/L (≈ 4.76 µM) |  |  | 16 mg/L (≈ 38.1 µM) |  |  |  |  | 
16 | CNc1cc(F)cc2c1[nH]c1nc(Oc3cncnc3)nc(N3CC4CNC(C4)C3)c12 (stereo not drawn) [4.015] | ≤ 0.5 mg/L |  |  | 1 mg/L (≈ 2.38 µM) |  |  |  |  | 
17 | CNc1cc(F)cc2c1[nH]c1nc(Oc3cnc(C)nc3)nc(N3CCNCC3)c12 [4.163] |  |  |  |  |  |  |  |  | MIC Sa (S. aureus ATCC 13709; [7]): ≤0.5 mg/L; MIC Ec (E. coli ATCC 25922; [8]): ≤0.5 mg/L
18 | CNc1cccc2c1[nH]c1nc(Oc3cnc(C)nc3)nc(N3CC[C@@H](NCCC#N)C3)c12 [3.10] | 32 mg/L (≈ 72.2 µM) |  |  | > 64 mg/L |  |  |  |  | 
19 | CNc1cc(F)cc2c1[nH]c1nc(Oc3cnc(C(C)(C)O)nc3)nc(N3CC4CC3C[C@@H]4N)c12 (stereo partly drawn) [4.411] | ≤ 0.5 mg/L |  |  | ≤ 0.5 mg/L |  |  |  |  | 
20 | CNc1cc(F)cc2c1[nH]c1nc(Oc3cnc(OC)nc3)nc(N3C[C@H](N)C4(CC4)C3)c12 [4.433] | ≤ 0.5 mg/L |  |  | ≤ 0.5 mg/L |  |  |  |  | 
